# Results reported in ChEMBL document CHEMBL1201862, “PubChem BioAssay data set” (2004).
#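 Compound exposure: 48 hours, 5 concentrations, 96-well plates. At the GI50, growth is halved.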 Active and inactive are the calls of the source. Rule as the data show it: active = GI50 up to about 1.1 µM and inactive = higher.
# Legend:
# Assay in all cases: DTP human tumour cell line panel, 48 h
# [1] = system: 786-0
# [2] = system: A498
# [3] = system: A549
# [4] = system: ACHN
# [5] = system: BT-549
# [6] = system: CAKI-1
# [7] = system: CCRF-CEM
# [8] = system: COLO 205
# [9] = system: DU-145
# [10] = system: EKVX
# [11] = system: HCC 2998
# [12] = system: HCT-116
# [13] = system: HCT-15
# [14] = system: HOP-62
# [15] = system: HOP-92
# [16] = system: KM12
# [17] = system: LOX IMVI
# [18] = system: M14
# [19] = system: MCF7
# [20] = system: MDA-MB-231
# [21] = system: MDA-MB-435
# [22] = system: NCI-H226
# [23] = system: NCI-H23
# [24] = system: NCI-H460
# [25] = system: NCI/ADR-RES
# [26] = system: OVCAR-3
# [27] = system: OVCAR-4
# [28] = system: OVCAR-5
# [29] = system: PC-3
# [30] = system: RPMI-8226
# [31] = system: RXF 393
# [32] = system: SF-268
# [33] = system: SF-295
# [34] = system: SK-MEL-28
# [35] = system: SK-MEL-2
# [36] = system: SK-MEL-5
# [37] = system: SK-OV-3
# [38] = system: SNB-19
# [39] = system: SNB-75
# [40] = system: SW-620
# [41] = system: T47D
# [42] = system: TK-10
# [43] = system: U-251
# [44] = system: UACC-257
# [45] = system: UACC-62
# [46] = system: UO-31
# [47] = system: HL-60
# [48] = system: HT-29
# [49] = system: IGROV-1
# [50] = system: K562
# [51] = system: MDA-N
# [52] = system: MOLT-4
# [53] = system: NCI-H522
# [54] = system: OVCAR-8
# [55] = system: SF-539
# [56] = system: SN12C
# [57] = system: SR
smiles,measurement,setting,value
CN(C)C1(N(C)C)Oc2c(c(=O)n(C)c(=O)n2C)C(c2ccc(F)cc2)C1(F)F (stereo not drawn),GI50,[1],> 100 µM (inactive)
same,GI50,[2],> 100 µM (inactive)
same,GI50,[3],> 100 µM (inactive)
same,GI50,[4],> 100 µM (inactive)
same,GI50,[5],> 100 µM (inactive)
same,GI50,[6],> 100 µM (inactive)
same,GI50,[7],> 100 µM (inactive)
same,GI50,[8],> 100 µM (inactive)
same,GI50,[9],> 100 µM (inactive)
same,GI50,[10],> 100 µM (inactive)
same,GI50,[11],> 100 µM (inactive)
same,GI50,[12],> 100 µM (inactive)
same,GI50,[13],> 100 µM
same,GI50,[14],> 100 µM (inactive)
same,GI50,[15],> 100 µM (inactive)
same,GI50,[16],> 100 µM (inactive)
same,GI50,[17],> 100 µM (inactive)
same,GI50,[18],> 100 µM (inactive)
same,GI50,[19],> 100 µM (inactive)
same,GI50,[20],> 100 µM (inactive)
same,GI50,[21],> 100 µM (inactive)
same,GI50,[22],> 100 µM (inactive)
same,GI50,[23],> 100 µM (inactive)
same,GI50,[24],> 100 µM (inactive)
same,GI50,[25],> 100 µM (inactive)
same,GI50,[26],> 100 µM (inactive)
same,GI50,[27],> 100 µM (inactive)
same,GI50,[28],> 100 µM (inactive)
same,GI50,[29],> 100 µM (inactive)
same,GI50,[30],> 100 µM (inactive)
same,GI50,[31],> 100 µM (inactive)
same,GI50,[32],> 100 µM (inactive)
same,GI50,[33],> 100 µM (inactive)
same,GI50,[34],> 100 µM (inactive)
same,GI50,[35],> 100 µM (inactive)
same,GI50,[36],> 100 µM (inactive)
same,GI50,[37],> 100 µM (inactive)
same,GI50,[38],> 100 µM (inactive)
same,GI50,[39],> 100 µM (inactive)
same,GI50,[40],> 100 µM (inactive)
same,GI50,[41],> 100 µM (inactive)
same,GI50,[42],> 100 µM (inactive)
same,GI50,[43],> 100 µM (inactive)
same,GI50,[44],> 100 µM (inactive)
same,GI50,[45],> 100 µM (inactive)
same,GI50,[46],> 100 µM (inactive)
COc1ccc(-c2nc(-c3cnccn3)n(C3OC(CO)C(O)C(O)C3O)n2)cc1 (stereo not drawn),GI50,[1],> 100 µM (inactive)
same,GI50,[3],> 100 µM (inactive)
same,GI50,[5],> 100 µM (inactive)
same,GI50,[7],> 100 µM (inactive)
same,GI50,[8],> 100 µM (inactive)
same,GI50,[9],> 100 µM (inactive)
same,GI50,[10],> 100 µM (inactive)
same,GI50,[11],> 100 µM (inactive)
same,GI50,[12],> 100 µM (inactive)
same,GI50,[13],> 100 µM
same,GI50,[47],> 100 µM (inactive)
same,GI50,[14],> 100 µM (inactive)
same,GI50,[15],> 100 µM (inactive)
same,GI50,[48],> 100 µM (inactive)
same,GI50,[49],> 100 µM (inactive)
same,GI50,[50],> 100 µM (inactive)
same,GI50,[16],> 100 µM (inactive)
same,GI50,[17],> 100 µM (inactive)
same,GI50,[18],> 100 µM (inactive)
same,GI50,[19],> 100 µM (inactive)
same,GI50,[20],> 100 µM (inactive)
same,GI50,[21],> 100 µM (inactive)
same,GI50,[51],> 100 µM (inactive)
same,GI50,[52],> 100 µM (inactive)
same,GI50,[23],> 100 µM (inactive)
same,GI50,[24],> 100 µM (inactive)
same,GI50,[53],> 100 µM (inactive)
same,GI50,[25],> 100 µM (inactive)
same,GI50,[26],> 100 µM (inactive)
same,GI50,[27],> 100 µM (inactive)
same,GI50,[28],> 100 µM (inactive)
same,GI50,[54],> 100 µM (inactive)
same,GI50,[29],> 100 µM (inactive)
same,GI50,[30],> 100 µM (inactive)
same,GI50,[31],> 100 µM (inactive)
same,GI50,[32],> 100 µM (inactive)
same,GI50,[33],> 100 µM (inactive)
same,GI50,[55],> 100 µM (inactive)
same,GI50,[34],> 100 µM (inactive)
same,GI50,[36],> 100 µM (inactive)
same,GI50,[37],> 100 µM (inactive)
same,GI50,[56],> 100 µM (inactive)
same,GI50,[38],> 100 µM (inactive)
same,GI50,[39],> 100 µM (inactive)
same,GI50,[57],> 100 µM (inactive)
same,GI50,[40],> 100 µM (inactive)
same,GI50,[41],> 100 µM (inactive)
same,GI50,[42],> 100 µM (inactive)
same,GI50,[43],> 100 µM (inactive)
same,GI50,[44],> 100 µM (inactive)
same,GI50,[45],> 100 µM (inactive)
same,GI50,[46],> 100 µM (inactive)
